This note sets out measurements from PubChem BioAssay (NCI).

Each structure is given as a SMILES string. Where “and” joins values, the source holds several entries; their conditions need not be identical. Equal values may be shown once.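 Values below derive from 48-hour exposures of cells grown in 96-well plates, with endpoints linearly interpolated between the two concentrations bracketing the appropriate inhibition level. GI50 marks 50% less growth. TGI: total growth inhibition.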

Some test systems named below: CAKI-1 renal; SK-OV-3 ovarian; MDA-N; SNB-75 CNS; LOX IMVI melanoma; SF-295 CNS; BT-549 breast; U251 CNS; HCC-2998 colon; MDA-MB-231 breast.
Assay in all cases: NCI anticancer screen, dose series, 48 h

In the case of `CCOC(=O)Cc1ccc(Nc2nc3cc(C(F)(F)F)ccc3nc2C(=O)OCC)cc1`, the TGI in the experiment on CAKI-1 renal was > 100 µM; in the experiment with SK-OV-3 ovarian, > 100 µM; with MDA-N, > 100 µM; in the experiment on SNB-75 CNS, 48.2 µM; with LOX IMVI melanoma it was > 100 µM; in the experiment on SF-295 CNS, > 100 µM. Also, the TGI in the experiment with BT-549 breast and with U251 CNS was > 100 µM each time.
For the molecule `O=[N+]([O-])C(/C(Cl)=C(/Cl)N1CCCCC1)=C1\NCCO1`, the TGI in the experiment with HCC-2998 colon, with CAKI-1 renal, with MDA-MB-231 breast, with SK-OV-3 ovarian, in the experiment on MDA-N and in the experiment on SNB-75 CNS was > 100 µM throughout. Besides, the TGI with SF-295 CNS, in the experiment on BT-549 breast and with U251 CNS was > 100 µM in each case.
As to `COC(=O)/C=C\c1ccc2c(c1)CC1(C2)Cc2ccc(/C=C/C(=O)OC)cc2C1` (stereo not given), the TGI in the experiment with HCC-2998 colon was > 31.6 µM; with CAKI-1 renal it was > 100 µM; in the experiment on MDA-MB-231 breast, > 31.6 µM; in the experiment with SK-OV-3 ovarian, > 31.6 µM; with MDA-N, > 31.6 µM; with SNB-75 CNS it was > 100 µM. For the same molecule, the TGI in the experiment with LOX IMVI melanoma, in the experiment with SF-295 CNS and with U251 CNS was > 31.6 µM in each case.
As to `Cc1ccc(SCC(OCn2cnc3c(N)ncnc32)[C@H](C)F)cc1` (stereo not given in full), the TGI in the experiment on HCC-2998 colon, in the experiment with CAKI-1 renal, in the experiment on MDA-MB-231 breast, in the experiment on SK-OV-3 ovarian, in the experiment with SNB-75 CNS and with LOX IMVI melanoma was > 100 µM each time. Further, the TGI with SF-295 CNS, in the experiment with BT-549 breast and with U251 CNS was > 100 µM throughout.
`O=C1O/C(=C\c2ccc(O)c(Br)c2)C(c2ccc(O)cc2)=C1Cl`: the TGI is > 100 µM in the experiment with HCC-2998 colon; > 100 µM in the experiment on CAKI-1 renal; > 100 µM with SK-OV-3 ovarian; 74.5 µM in the experiment on MDA-N; > 100 µM in the experiment on SNB-75 CNS; > 100 µM in the experiment on LOX IMVI melanoma. Further, the TGI in the experiment on SF-295 CNS and with U251 CNS was > 100 µM in each case.
Regarding `CCC1(O)CC(OC2CC(N(C)C)C(OC3CC(O)C(OC4OC(C)C(=O)C=C4N)C(C)O3)C(C)O2)c2c(O)c3c(c(O)c2C1C(=O)OC)C(=O)c1cccc(O)c1C3=O` (stereo not given), the TGI in the experiment with HCC-2998 colon was 0.118 µM; in the experiment with MDA-MB-231 breast, 0.296 µM; with MDA-N, 0.118 µM and 0.012 µM; in the experiment with SNB-75 CNS it was 0.223 µM; with LOX IMVI melanoma, 0.613 µM; in the experiment on U251 CNS, 1.08 µM.
As to `COC(=O)c1cccc(NC(=O)Nc2ccc3oc(=O)c4ccccc4c3c2)c1`, in the experiment with MDA-MB-231 breast, the GI50 is 3.89 µM and the TGI is > 100 µM. Also, in the experiment with SK-OV-3 ovarian, the GI50 was > 100 µM and the TGI is > 100 µM.
With `COc1ccc(-c2oc3c(CC(=O)O)cccc3c(=O)c2OC)cc1`, the TGI in the experiment on HCC-2998 colon was > 100 µM; with CAKI-1 renal, 42.6 µM; with MDA-MB-231 breast it was > 100 µM; in the experiment with SK-OV-3 ovarian, > 100 µM; with MDA-N, > 100 µM; in the experiment with SF-295 CNS, > 100 µM. In addition, the TGI with BT-549 breast and in the experiment with U251 CNS was > 100 µM throughout.
For `CC1CC(N)=Nc2ccccc2N1Cc1ccccc1` (stereo not given), the TGI amounted to 25.2 µM with CAKI-1 renal; 27.4 µM in the experiment on MDA-MB-231 breast; 25.9 µM with SK-OV-3 ovarian; 39.6 µM in the experiment with MDA-N; 20.8 µM in the experiment with SNB-75 CNS; 27.8 µM in the experiment with SF-295 CNS. Further, the TGI came to 26 µM in the experiment on BT-549 breast and 28.4 µM in the experiment on U251 CNS.
As to `CC1(C)C(O)c2ccccc2OC1N1CCN(C2Oc3ccccc3C(O)C2(C)C)CC1` (stereo not given), the TGI in the experiment with HCC-2998 colon, in the experiment on CAKI-1 renal, in the experiment on MDA-MB-231 breast, in the experiment on SK-OV-3 ovarian, in the experiment with MDA-N and with SNB-75 CNS was > 100 µM throughout. For the same molecule, the TGI with LOX IMVI melanoma, in the experiment on SF-295 CNS and in the experiment on U251 CNS was > 100 µM in each case.
In the case of `CC(=O)N1NC(c2ccccc2)=CC(=O)/C1=C/C(=O)c1ccccc1`, the TGI in the experiment on HCC-2998 colon, with CAKI-1 renal, in the experiment with MDA-MB-231 breast, in the experiment with SK-OV-3 ovarian, in the experiment on MDA-N and in the experiment on LOX IMVI melanoma was > 100 µM each time. Besides, the TGI with SF-295 CNS and with U251 CNS was > 100 µM throughout.
Turning to `CN(C(=O)OC(C)(C)C)[C@H]1CCCC[C@H]1N1CCCC1`, the TGI with CAKI-1 renal, with MDA-MB-231 breast, in the experiment on SK-OV-3 ovarian, in the experiment on LOX IMVI melanoma, with SF-295 CNS and in the experiment on BT-549 breast was > 100 µM each time. In addition, the TGI in the experiment with U251 CNS was > 100 µM.
In the case of `CC(=O)c1ccc(-c2oc(-c3ccccc3)cc2-c2ccc3c(c2)OCO3)s1`, the TGI with HCC-2998 colon was > 100 µM; with CAKI-1 renal it was 5.07 µM; with SK-OV-3 ovarian, > 100 µM; in the experiment with SNB-75 CNS, > 100 µM; in the experiment with SF-295 CNS it was > 100 µM; with U251 CNS, > 100 µM.
`CC(=O)O[C@H]1C(=O)[C@@]2(C)C(C(OC(=O)c3ccccc3)[C@]3(O)CC(OC(=O)C(O)C(NC(=O)c4ccccc4)c4ccc(F)cc4)C(C)=C1C3(C)C)[C@]1(OC(C)=O)CO[C@@H]1C[C@@H]2O` (stereo not given in full): the TGI was 0.0193 µM in the experiment on HCC-2998 colon; > 10 µM in the experiment with CAKI-1 renal; 0.608 µM in the experiment on MDA-MB-231 breast; > 10 µM in the experiment with SK-OV-3 ovarian; > 10 µM with SNB-75 CNS; > 10 µM with LOX IMVI melanoma. For the same molecule, the TGI was 1.42 µM in the experiment on SF-295 CNS, > 10 µM in the experiment on BT-549 breast and > 10 µM in the experiment on U251 CNS.
Regarding `C1COC2SC3=C(SC(=C4SC5=C(SCCS5)S4)S3)SC2O1` (stereo not given), the TGI in the experiment with HCC-2998 colon, in the experiment with CAKI-1 renal, in the experiment on MDA-MB-231 breast, in the experiment with SK-OV-3 ovarian, with SNB-75 CNS and with SF-295 CNS was > 100 µM throughout. For the same molecule, the TGI with BT-549 breast and in the experiment with U251 CNS was > 100 µM in each case.
As to `CO/C(=N/N1CC1C(F)(F)F)c1ccncc1` (stereo not given), the TGI with CAKI-1 renal, in the experiment with MDA-MB-231 breast, in the experiment with SK-OV-3 ovarian, in the experiment with MDA-N, in the experiment on SNB-75 CNS and in the experiment with SF-295 CNS was > 100 µM throughout. Moreover, the TGI in the experiment on BT-549 breast and in the experiment on U251 CNS was > 100 µM each time.
Turning to `COc1cc(CC2CCc3nc(N)nc(N)c3C2)cc(OC)c1OC` (stereo not given), the TGI in the experiment on HCC-2998 colon is > 46.9 µM; with MDA-MB-231 breast it was > 100 µM; in the experiment with SK-OV-3 ovarian it was > 100 µM; in the experiment with SNB-75 CNS it was > 48.8 µM; in the experiment with LOX IMVI melanoma it was > 43.1 µM; with SF-295 CNS, > 51.3 µM. For the same molecule, the TGI with BT-549 breast and in the experiment on U251 CNS was > 100 µM in each case.
In the case of `CCc1cc(-c2nsc(=O)o2)c(S(=O)(=O)CC)s1`, the TGI in the experiment with HCC-2998 colon, with CAKI-1 renal, in the experiment with SK-OV-3 ovarian, in the experiment with MDA-N, with SNB-75 CNS and in the experiment on LOX IMVI melanoma was > 100 µM in each case. Further, the TGI in the experiment with SF-295 CNS and in the experiment on U251 CNS was > 100 µM throughout.
Take `CC1=CC(C)C(C)N(CCNC(=O)Nc2ccccc2)c2ccccc21` (stereo not given): the TGI in the experiment with HCC-2998 colon is 61.1 µM; with CAKI-1 renal it was 49.6 µM; with MDA-MB-231 breast, 31.1 µM; with SK-OV-3 ovarian it was 65.1 µM; in the experiment with MDA-N, > 100 µM; with SNB-75 CNS it was 82.4 µM. Also, the values for the TGI with LOX IMVI melanoma and in the experiment with SF-295 CNS were 24.3 µM and 40.6 µM, respectively.
Take `CCOC(=O)c1ccc2c(c1)nc1n2C(c2c(F)cccc2F)SC1` (stereo not given): the TGI in the experiment with HCC-2998 colon was > 100 µM; in the experiment on CAKI-1 renal, > 100 µM; in the experiment on MDA-MB-231 breast it was > 100 µM; in the experiment with SK-OV-3 ovarian, > 100 µM; in the experiment with SNB-75 CNS, > 100 µM; with LOX IMVI melanoma, 58.6 µM. Moreover, the TGI with SF-295 CNS is 73.7 µM; in the experiment on BT-549 breast it was > 100 µM; with U251 CNS it was > 100 µM.
As to `CCOC(=O)CSc1nc(-c2ccc(OC)cc2)c(C#N)c(=O)[nH]1`, the TGI with HCC-2998 colon, in the experiment with CAKI-1 renal, in the experiment with MDA-MB-231 breast, with SK-OV-3 ovarian, in the experiment on SNB-75 CNS and with SF-295 CNS was > 100 µM in each case. The TGI in the experiment on BT-549 breast and in the experiment with U251 CNS was > 100 µM in each case.
For `Cc1nnc(Nc2ccc(Cl)cc2)o1`, the TGI in the experiment on HCC-2998 colon, with CAKI-1 renal, in the experiment on MDA-MB-231 breast, with SK-OV-3 ovarian, with MDA-N and in the experiment with SNB-75 CNS was > 10 µM in each case. Further, the TGI in the experiment with LOX IMVI melanoma, with SF-295 CNS and in the experiment on U251 CNS was > 10 µM each time.
With `CC(C)[Si](OC12CCC(CC1O)CC2C(=O)O)(C(C)C)C(C)C` (stereo not given), the TGI in the experiment on CAKI-1 renal was found to be 36.4 µM; in the experiment with MDA-MB-231 breast, 38 µM; in the experiment with SK-OV-3 ovarian it was 27.2 µM; with MDA-N, 39.7 µM; with SNB-75 CNS, 28.1 µM; in the experiment on SF-295 CNS, 29.2 µM. The TGI with U251 CNS was 31.4 µM.
Turning to `CCOC(=O)Cn1c(=O)c2nc(SC)sc2n(-c2ccc(C)cc2)c1=S`, the TGI in the experiment with HCC-2998 colon was > 100 µM; in the experiment with CAKI-1 renal it was > 100 µM; in the experiment on MDA-MB-231 breast, > 100 µM; in the experiment on SK-OV-3 ovarian, > 100 µM; in the experiment with MDA-N, > 100 µM; in the experiment on SNB-75 CNS it was 44.2 µM. For the same molecule, the TGI in the experiment with LOX IMVI melanoma is > 100 µM; in the experiment on SF-295 CNS it was > 100 µM; with U251 CNS, 71.6 µM.
